This is an account of results in patent US20150274639A1, “METHODS OF USE FOR COMPOSITIONS COMPRISING A BIOCIDAL POLYAMINE” (Curza Global, LLC, priority 2013, published 2015).

Assay [1] deals with A. baumannii biofilm. Nature of the assay: EBEC, high number biofilms on PEEK membranes (10^9 to 10^2 CFU/PEEK membrane in 24 hours). As to conditions: Table 3B titled MICs, group head missing, values match EBEC; for MIC: Acinetobacter baumannii. Format: cell-based, Acinetobacter baumannii.
Assay [2] deals with A. baumannii biofilm. Described as above. Format: cell-based, Acinetobacter baumannii. The note with it: for EBEC relative to MIC against A. baumannii: EBEC greater than the MIC by this factor; for EBEC, A. baumannii: Table 4. As to the method: (§1) In addition to determining the MIC and the MBEC of polyamine compounds against planktonic bacteria and low number biofilms, our group wanted to determine the efficacy of polyamine compounds against high number biofilms. To do so, biofilms were grown on the surface of polyetheretherketone (PEEK) membranes using a membrane biofilm reactor. This reactor is similar to the CDC biofilm reactor, but rather than growing biofilms on coupon surfaces, the reactor was modified to hold PEEK membranes. In short, to grow biofilms within this system, 500 mL of brain heart infusion (BHI) broth were inoculated with 1 mL of a 0.5 McFarland. The reactor was placed on a hot plate set at 34° C. and the bacteria were grown under batch conditions for 24 hours. Following this protocol, biofilms typically grow to 10^9 CFU/PEEK membrane. […] A solution of 10% BHI was then flowed through the reactor at a rate of 6.94 mL/min for an additional 24 hours. PEEK membranes were then removed and placed into 2 mL of CAMHB that contained a desired concentration of polyamine compound or antibiotic. The EBEC was defined as the concentration of antimicrobial required to reduce a biofilm from approximately 10^9 CFU/PEEK membrane to approximately 10^2 CFU/PEEK membrane in a 24-hour period.
(§2) In addition to determining the MIC and the MBEC of compounds against planktonic bacteria and low number biofilms, the efficacy of the compounds of the invention against high number biofilms is determined. To do so, biofilms are grown on the surface of PEEK membranes using a membrane biofilm reactor (Williams, D. L., Haymond, B. S. & Bloebaum, R. D. Use of delrin plastic in a modified CDC biofilm reactor. Res J Microbiol 6, 425-429 (2011); Williams, D. L., Woodbury, K. L., Haymond, B. S., Parker, A. E. & Bloebaum, R. D. A modified CDC biofilm reactor to produce mature biofilms on the surface of PEEK membranes for an in vivo animal model application. Curr Microbiol 62, 1657-1663 (2011); Williams, D. L. et al., In Vivo Efficacy of a Silicone—Cationic Steroid Antimicrobial Coating to Prevent Implant-Related Infection. Biomaterials 33, 8641-8656 (2012); Williams, D. L. et al., Experimental model of biofilm implant-related osteomyelitis to test combination biomaterials using biofilms as initial inocula. J Biomed Mat Res A 100, 1888-1900 (2012)). This reactor is similar to the CDC biofilm reactor, but rather than growing biofilms on coupon surfaces, the reactor was modified to hold PEEK membranes. In short, to grow biofilms within this system, 500 mL of brain heart infusion (BHI) broth is inoculated with 1 mL of a 0.5 McFarland. The reactor is placed on a hot plate set at 34° C. and the bacteria grown under batch conditions for 24 hours. A solution of 10% BHI will then be flowed through the reactor at a rate of 6.94 mL/min for an additional 24 hours. Following this protocol, biofilms typically grow to 10^9 CFU/PEEK membrane. PEEK membranes is removed and placed into 2 mL of CAMHB that contain a desired concentration of the test compound. The EBEC is defined as the concentration of antimicrobial required to reduce a biofilm from approximately 10^9 CFU/PEEK membrane to approximately 10^2 CFU/PEEK membrane in a 24-hour period.
EBEC data were collected to determine the efficacy of CZ-52, CZ-58 and traditional antibiotics against high number biofilms containing approximately 10^9 CFU grown on the surface of a polyetheretherketone (PEEK) membrane. […] In contrast, at 250 μg/mL CZ-52 was able to reduce MRSA biofilms by greater than 7 log10 units in a 24-hour period. Although the MIC of CZ-58 was lower against MRSA compared to A. baumannii, CZ-58 had greater activity against biofilms of A. baumannii than against MRSA biofilms in the EBEC assay. […] Although the MIC of CZ-58 was “high” compared to MICs of traditional antibiotics, the efficacy against biofilms was promising.

Assay [3] deals with A. baumannii biofilm. The assay can be described thus: MBEC, MBEC Inoculation Tray by Innovotech (to 10^2 CFU/peg in 24 hours). Format: cell-based, Acinetobacter baumannii. The note with it: Table 3B titled MICs, group head missing, values match MBEC; for MIC: Acinetobacter baumannii.
The test system of assay [4] is MRSA biofilm. Nature of the assay: EBEC, high number biofilms on PEEK membranes (10^9 to 10^2 CFU/PEEK membrane in 24 hours). As to conditions: for EBEC, MRSA: Table 4. Format: cell-based, methicillin-resistant Staphylococcus aureus. As to the method:
as §1, §2
EBEC data were collected to determine the efficacy of CZ-52, CZ-58 and traditional antibiotics against high number biofilms containing approximately 10^9 CFU grown on the surface of a polyetheretherketone (PEEK) membrane.

Another assay concerns P. aeruginosa. The assay can be described thus: MIC in CAMHB, 96-well plate (10^5 to 10^2 CFU/mL in 24 hours). Format: cell-based. The note with it: Pseudomonas aeruginosa. The protocol:
To determine the MIC of polyamine compounds, the protocol described herein was used.
In brief, a 0.5 McFarland of each bacterial isolate was made. A 0.5 McFarland is a measure of turbidity in a liquid sample that contains approximately 1×10̂^8 CFU/mL. The 0.5 McFarland standard was diluted in cation adjusted Mueller Hinton Broth (CAMHB), and […], of broth were added to a well of a 96-well plate. In addition, 50 μL of CAMHB that contained a desired concentration of antimicrobial were also added to the well for a final volume of 100 and a final concentration of approximately 5×10^4 CFU/well (which equated to approximately 5×10^5 CFU/mL). Each well contained a desired amount of polyamine compound in order to experimentally determine the MIC. Each 96-well plate was incubated at 37° C. for 24 hours. The contents of each well were plated on tryptic soy agar (TSA). TSA plates were incubated for 37° C. for 24 hours after which the number of CFU were counted and used to calculate the CFU/mL that remained after exposure to varying concentrations of compound. This procedure was repeated n=8 times for each concentration of antimicrobial.

In assay [5] the test system is MRSA biofilm. Nature of the assay: MBEC, MBEC Inoculation Tray by Innovotech (to 10^2 CFU/peg in 24 hours). Format: cell-based, methicillin-resistant Staphylococcus aureus. As to conditions: for MIC: Staphylococcus aureus, MRSA, Table 3A titled MICs, group head missing, values match MBEC; for MBEC, MRSA: Table 4.
Where [6] appears, read: Table 3A, first P. aeruginosa column.

≈ marks a conversion by molar mass, not a printed value. Where “and” joins values, the source holds several entries; their conditions need not be identical. Equal entries are not always repeated.

As for “Polymyxin B sulfate [reference compound]”, the “MIC, A. baumannii” value is 1,000 μg/mL against A. baumannii biofilm [1] and 50 µg/mL in the assay on A. baumannii biofilm [3]. Besides, the “EBEC relative to MIC against A. baumannii” value with A. baumannii biofilm [2] was 1,000 ×. Further, in the assay on A. baumannii biofilm [2], the “EBEC, A. baumannii” value is 1,000 μg/mL and 722 μM.

In the case of `NCCCNCCCNCc1cccc(CNCCCNCCCN)c1` [CZ-25], the MIC with A. baumannii biofilm [1] was > 5000 µg/mL; in the assay on P. aeruginosa (setting [6]) it was 50 µg/mL; in the assay on P. aeruginosa (Table 5, class symbols), > 100 µM; against MRSA biofilm [5], 25 µg/mL (≈ 68.6 µM); against A. baumannii biofilm [3], 450 µg/mL (≈ 1230 µM). Further, the “EBEC, MRSA” value with MRSA biofilm [4] is > 5,000 μg/mL and 13,715 μM. Also, the “MBEC, MRSA” value with MRSA biofilm [5] is 25 μg/mL and 69 μM. Besides, in the assay on A. baumannii biofilm [2], the “EBEC, A. baumannii” value was ~7,500 μg/mL.

Turning to `NCCCNCCCNCc1cc(CNCCCNCCCN)cc(CNCCCNCCCN)c1` [CZ-52], the MIC is > 5000 µg/mL against A. baumannii biofilm [1], 17 µg/mL in the assay with P. aeruginosa (setting [6]), 20 µg/mL (≈ 39.4 µM) against MRSA biofilm [5] and 300 µg/mL (≈ 591 µM) against A. baumannii biofilm [3]. For the same molecule, the “EBEC, MRSA” value with MRSA biofilm [4] is 250 μg/mL and 500 μM. In addition, the “reduction of MRSA biofilms” value in the assay on MRSA biofilm [4] (at 250 μg/mL, 24-hour period) was “greater than 7 log10 units”. The “MBEC, MRSA” value in the assay on MRSA biofilm [5] was 20 μg/mL and 40 μM. The “EBEC, A. baumannii” value with A. baumannii biofilm [2] was ~7,000 μg/mL and ~14,000 μM.

Turning to `NCCCNCCCNCc1cc(CNCCCNCCCN)cc(-c2ccccc2)c1` [CZ-58], the “EBEC, MRSA” value in the assay on MRSA biofilm [4] was 1,500 μg/mL and 3,403 μM. For the same molecule, the MIC with P. aeruginosa (Table 5, class symbols) was < 50 µM. Besides, the “MBEC, MRSA” value in the assay on MRSA biofilm [5] was 30 μg/mL and 68 μM. Besides, in the assay on A. baumannii biofilm [2], the “EBEC relative to MIC against A. baumannii” value is listed as ~13 ×; the “EBEC, A. baumannii” value was 400 μg/mL and 908 μM. For the same molecule, the “activity against A. baumannii biofilms relative to MRSA biofilms” value in the assay with A. baumannii biofilm [2] (greater activity against A. baumannii biofilms) is reported as 10 fold.
